≈ marks a conversion by molar mass, not a printed value.
Legend:
[1] = Cytotoxicity against HEK293T cells after 48 hrs by MTS assay; assay type: cell-based, HEK-293T; conditions: human
[2] = test system: Staphylococcus epidermidis; assay: Antibacterial activity against methicillin-resistant Staphylococcus epidermidis 09-3 by agar dilution method; assay type: functional
[3] = test system: Enterococcus faecalis; assay: Antibacterial activity against vancomycin-sensitive Enterococcus faecalis ATCC 29212 by agar dilution method; assay type: functional
[4] = test system: Providencia rettgeri; assay: Antibacterial activity against Providencia rettgeri ATCC 31052 by agar dilution method; assay type: functional
[5] = test system: Proteus vulgaris; assay: Antibacterial activity against Proteus vulgaris ATCC 29905 by agar dilution method; assay type: functional
[6] = test system: Escherichia coli; assay: Antibacterial activity against extended-spectrum beta-lactamase-negative Escherichia coli ATCC 25922 by agar dilution method; assay type: functional
[7] = test system: Klebsiella pneumoniae; assay: Antibacterial activity against extended-spectrum beta-lactamase-positive Klebsiella pneumoniae 09-25 by agar dilution method; assay type: functional
[8] = test system: Pseudomonas aeruginosa; assay: Antibacterial activity against Pseudomonas aeruginosa ATCC 27853 by agar dilution method; assay type: functional
[9] = test system: Proteus mirabilis; assay: Antibacterial activity against Proteus mirabilis 09-1 by agar dilution method; assay type: functional
[10] = test system: Enterococcus faecium; assay: Antibacterial activity against vancomycin-resistant Enterococcus faecium ATCC 700221 by agar dilution method; assay type: functional
[11] = test system: Staphylococcus aureus; assay: Antibacterial activity against methicillin-sensitive Staphylococcus aureus 09-6 by agar dilution method; assay type: functional
[12] = test system: Staphylococcus epidermidis; assay: Antibacterial activity against methicillin-sensitive Staphylococcus epidermidis 09-9 by agar dilution method; assay type: functional
[13] = test system: Morganella morganii; assay: Antibacterial activity against Morganella morganii ATCC 25830 by agar dilution method; assay type: functional
[14] = test system: Citrobacter freundii; assay: Antibacterial activity against Citrobacter freundii ATCC 43864 by agar dilution method; assay type: functional
[15] = test system: Klebsiella pneumoniae; assay: Antibacterial activity against extended-spectrum beta-lactamase-positive Klebsiella pneumoniae ATCC 700603 by agar dilution method; assay type: functional
[16] = test system: Enterococcus faecalis; assay: Antibacterial activity against vancomycin-sensitive Enterococcus faecalis 09-8 by agar dilution method; assay type: functional
[17] = test system: Klebsiella pneumoniae; assay: Antibacterial activity against extended-spectrum beta-lactamase-negative Klebsiella pneumoniae 7 by agar dilution method; assay type: functional
[18] = test system: Escherichia coli; assay: Antibacterial activity against extended-spectrum beta-lactamase-negative Escherichia coli 1515 by agar dilution method; assay type: functional
[19] = test system: Staphylococcus aureus; assay: Antibacterial activity against methicillin-resistant Staphylococcus aureus ATCC 33591 by agar dilution method; assay type: functional
[20] = test system: Escherichia coli; assay: Antibacterial activity against extended-spectrum beta-lactamase-negative Escherichia coli 09-20 by agar dilution method; assay type: functional
[21] = test system: Enterococcus faecalis; assay: Antibacterial activity against vancomycin-resistant Enterococcus faecalis 09-9 by agar dilution method; assay type: functional
[22] = test system: Staphylococcus aureus; assay: Antibacterial activity against methicillin-sensitive Staphylococcus aureus 15 by agar dilution method; assay type: functional
[23] = test system: Staphylococcus aureus; assay: Antibacterial activity against methicillin-sensitive Staphylococcus aureus ATCC 29213 by agar dilution method; assay type: functional
[24] = test system: Serratia marcescens; assay: Antibacterial activity against Serratia marcescens 41002 by agar dilution method; assay type: functional
[25] = test system: Salmonella typhi; assay: Antibacterial activity against Salmonella typhi H901 by agar dilution method; assay type: functional, Salmonella enterica subsp. enterica serovar Typhi; conditions: Salmonella enterica
[26] = test system: Pseudomonas aeruginosa; assay: Antibacterial activity against Pseudomonas aeruginosa 09-14 by agar dilution method; assay type: functional
[27] = test system: Staphylococcus epidermidis; assay: Antibacterial activity against methicillin-sensitive Staphylococcus epidermidis ATCC 12228 by agar dilution method; assay type: functional
[28] = test system: Enterococcus faecium; assay: Antibacterial activity against vancomycin-sensitive Enterococcus faecium 09-10 by agar dilution method; assay type: functional
[29] = test system: Escherichia coli; assay: Antibacterial activity against extended-spectrum beta-lactamase-positive Escherichia coli 09-1 by agar dilution method; assay type: functional
[30] = test system: Staphylococcus aureus; assay: Antibacterial activity against methicillin-resistant Staphylococcus aureus 09-13 by agar dilution method; assay type: functional
[31] = test system: Enterobacter cloacae; assay: Antibacterial activity against Enterobacter cloacae 45301 by agar dilution method; assay type: functional
[32] = test system: Klebsiella pneumoniae; assay: Antibacterial activity against extended-spectrum beta-lactamase-negative Klebsiella pneumoniae 09-8 by agar dilution method; assay type: functional
[33] = test system: Klebsiella aerogenes; assay: Antibacterial activity against Enterobacter aerogenes 45102 by agar dilution method; assay type: functional
[34] = test system: Enterococcus faecalis; assay: Antibacterial activity against vancomycin-resistant Enterococcus faecalis ATCC 51299 by agar dilution method; assay type: functional
[35] = test system: Klebsiella pneumoniae; assay: Antibacterial activity against Klebsiella pneumoniae ATCC BAA-2146 expressing NDM-1 by agar dilution method; assay type: functional
[36] = test system: Enterococcus faecium; assay: Antibacterial activity against vancomycin-resistant Enterococcus faecium 05-8 by agar dilution method; assay type: functional
[37] = test system: Pseudomonas aeruginosa; assay: Antibacterial activity against Pseudomonas aeruginosa PAO1 by agar dilution method; assay type: functional
[38] = test system: Acinetobacter calcoaceticus; assay: Antibacterial activity against Acinetobacter calcoaceticus ATCC 19606 by agar dilution method; assay type: functional

Row | SMILES | CC50 at 48 h [1] [µg/mL] | MIC [2] [µg/mL] | MIC [3] [µg/mL] | MIC [4] [µg/mL] | MIC [5] [µg/mL] | MIC [6] [µg/mL] | MIC [7] [µg/mL] | MIC [8] [µg/mL] | MIC [9] [µg/mL] | MIC [10] [µg/mL] | MIC [11] [µg/mL] | MIC [12] [µg/mL] | MIC [13] [µg/mL] | MIC [14] [µg/mL] | MIC [15] [µg/mL] | MIC [16] [µg/mL] | MIC [17] [µg/mL] | MIC [18] [µg/mL] | MIC [19] [µg/mL] | MIC [20] [µg/mL] | further results
1 | N=C(c1ccc2cc(-c3ccc(Oc4ccc(-c5cc6ccc(C(=N)N7CCCCC7)cc6[nH]5)cc4)cc3)[nH]c2c1)N1CCCCC1 | 2.5 (≈ 4.03 µM) | 8 (≈ 12.9 µM) | 32 (≈ 51.5 µM) | > 128 | > 128 | > 128 | > 128 | > 128 | > 128 | 16 to 32 (≈ 25.8 to 51.5 µM) | 16 (≈ 25.8 µM) | 8 (≈ 12.9 µM) | > 128 | > 128 | > 128 | 32 (≈ 51.5 µM) | > 128 | > 128 | 16 (≈ 25.8 µM) | > 128 | MIC [21]: 32 µg/mL (≈ 51.5 µM); MIC [22]: 16 µg/mL (≈ 25.8 µM); MIC [23]: 16 µg/mL (≈ 25.8 µM); MIC [24]: > 128 µg/mL; MIC [25]: > 128 µg/mL; MIC [26]: > 128 µg/mL; MIC [27]: 8 µg/mL (≈ 12.9 µM); MIC [28]: 16 to 32 µg/mL (≈ 25.8 to 51.5 µM); MIC [29]: > 128 µg/mL; MIC [30]: 16 µg/mL (≈ 25.8 µM); MIC [31]: > 128 µg/mL; MIC [32]: > 128 µg/mL; MIC [33]: > 128 µg/mL; MIC [34]: 64 µg/mL (≈ 103 µM); MIC [35]: > 128 µg/mL; MIC [36]: 32 µg/mL (≈ 51.5 µM); MIC [37]: > 128 µg/mL; MIC [38]: > 128 µg/mL
2 | N=C(c1ccc2cc(-c3ccc(Oc4ccc(-c5cc6ccc(C(=N)N7CCOCC7)cc6[nH]5)cc4)cc3)[nH]c2c1)N1CCOCC1 | 4.9 (≈ 7.84 µM) | 2 (≈ 3.2 µM) | 8 (≈ 12.8 µM) | > 128 | > 128 | 32 (≈ 51.2 µM) | > 128 | > 128 | > 128 | 2 (≈ 3.2 µM) | 2 (≈ 3.2 µM) | 2 (≈ 3.2 µM) | 16 (≈ 25.6 µM) | > 128 | > 128 | 8 (≈ 12.8 µM) | > 128 | 128 (≈ 205 µM) | 2 (≈ 3.2 µM) | 64 (≈ 102 µM) | MIC [21]: 16 µg/mL (≈ 25.6 µM); MIC [22]: 1 µg/mL (≈ 1.6 µM); MIC [23]: 2 µg/mL (≈ 3.2 µM); MIC [24]: > 128 µg/mL; MIC [25]: 64 µg/mL (≈ 102 µM); MIC [26]: > 128 µg/mL; MIC [27]: 2 µg/mL (≈ 3.2 µM); MIC [28]: 4 µg/mL (≈ 6.4 µM); MIC [29]: 128 µg/mL (≈ 205 µM); MIC [30]: 2 µg/mL (≈ 3.2 µM); MIC [31]: > 128 µg/mL; MIC [32]: > 128 µg/mL; MIC [33]: > 128 µg/mL; MIC [34]: 4 µg/mL (≈ 6.4 µM); MIC [35]: > 128 µg/mL; MIC [36]: 8 µg/mL (≈ 12.8 µM); MIC [37]: > 128 µg/mL; MIC [38]: > 128 µg/mL
3 | CC1CC(C)CN(C(=N)c2ccc3cc(-c4ccc(Oc5ccc(-c6cc7ccc(C(=N)N8CC(C)CC(C)C8)cc7[nH]6)cc5)cc4)[nH]c3c2)C1 (centres undefined) | 2.6 (≈ 3.84 µM) | 16 (≈ 23.6 µM) | 128 (≈ 189 µM) | > 128 | > 128 | > 128 | > 128 | > 128 | > 128 | 128 (≈ 189 µM) | 64 (≈ 94.5 µM) | 64 (≈ 94.5 µM) | > 128 | > 128 | > 128 | 64 (≈ 94.5 µM) | > 128 | > 128 | 64 (≈ 94.5 µM) | > 128 | MIC [21]: 64 µg/mL (≈ 94.5 µM); MIC [22]: 64 µg/mL (≈ 94.5 µM); MIC [23]: 64 µg/mL (≈ 94.5 µM); MIC [24]: > 128 µg/mL; MIC [25]: > 128 µg/mL; MIC [26]: > 128 µg/mL; MIC [27]: 16 µg/mL (≈ 23.6 µM); MIC [28]: 128 µg/mL (≈ 189 µM); MIC [29]: > 128 µg/mL; MIC [30]: 16 µg/mL (≈ 23.6 µM); MIC [31]: > 128 µg/mL; MIC [32]: > 128 µg/mL; MIC [33]: > 128 µg/mL; MIC [34]: 64 µg/mL (≈ 94.5 µM); MIC [35]: > 128 µg/mL; MIC [36]: > 128 µg/mL; MIC [37]: > 128 µg/mL; MIC [38]: > 128 µg/mL

— ChEMBL document CHEMBL4002623, “Synthesis and in vitro activity of dicationic indolyl diphenyl ethers as novel potent antibiotic agents against drug-resistant bacteria” (Bioorg Med Chem Lett, 2017)
